Assay results taken from patent US8058242B2, “Chimeric proteins with natriuretic activity” (The University of Queensland, priority 2004, dated 2011).
Several values for one entry are separate records, joined by “and”; a condition that tells them apart may be missing. Identical values can stand only once. Positions of bridges follow the written chain, without caps; N, C: chain ends. Non-standard residues stand in square brackets, D forms with d. Residues, ends and D or L forms follow the SMILES beside them. No end group written: not given here. Sec = N[C@@H](C[SeH])C(=O)O; Nle = CCCC[C@H](N)C(=O)O

Legend:
[1] = biological target: T1, Natriuretic Peptide Receptor-A (NPR-A) signaling in MDCK cells (Canis lupus familiaris, UniProt A0A8I3MHU3); assay type: cell-based, canine; conditions: stimulation of cGMP accumulation in MDCK cells; for EC50: read-out: EC50 (M) ± Standard Error
T1 sequence (A0A8I3MHU3 32-1060): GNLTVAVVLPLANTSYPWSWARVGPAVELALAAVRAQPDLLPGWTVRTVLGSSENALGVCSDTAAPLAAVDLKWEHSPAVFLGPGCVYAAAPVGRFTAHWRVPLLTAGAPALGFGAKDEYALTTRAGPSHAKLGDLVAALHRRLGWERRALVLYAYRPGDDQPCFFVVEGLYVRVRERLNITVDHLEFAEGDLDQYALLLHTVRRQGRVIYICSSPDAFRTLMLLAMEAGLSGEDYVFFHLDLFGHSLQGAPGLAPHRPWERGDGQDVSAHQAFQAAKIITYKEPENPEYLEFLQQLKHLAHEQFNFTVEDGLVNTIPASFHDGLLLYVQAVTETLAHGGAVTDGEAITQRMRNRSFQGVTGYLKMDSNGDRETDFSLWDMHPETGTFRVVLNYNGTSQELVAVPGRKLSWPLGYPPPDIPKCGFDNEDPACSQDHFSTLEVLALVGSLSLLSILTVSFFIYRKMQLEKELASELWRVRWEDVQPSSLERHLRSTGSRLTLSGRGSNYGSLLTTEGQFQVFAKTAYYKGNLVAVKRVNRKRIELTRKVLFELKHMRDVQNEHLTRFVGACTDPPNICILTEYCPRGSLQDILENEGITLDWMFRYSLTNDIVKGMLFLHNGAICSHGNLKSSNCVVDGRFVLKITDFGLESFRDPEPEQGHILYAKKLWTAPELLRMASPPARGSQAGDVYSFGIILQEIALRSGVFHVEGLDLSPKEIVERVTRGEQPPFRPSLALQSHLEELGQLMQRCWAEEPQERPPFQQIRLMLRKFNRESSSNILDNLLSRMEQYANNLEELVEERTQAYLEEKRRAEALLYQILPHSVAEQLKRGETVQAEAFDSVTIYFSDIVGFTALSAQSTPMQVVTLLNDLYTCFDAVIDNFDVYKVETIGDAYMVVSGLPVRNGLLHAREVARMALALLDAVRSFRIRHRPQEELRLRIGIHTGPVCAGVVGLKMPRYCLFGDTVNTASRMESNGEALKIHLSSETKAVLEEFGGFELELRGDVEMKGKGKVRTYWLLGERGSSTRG

[2] = system: denuded aortic rings, GC A receptor; assay: Relaxation of noradrenaline constricted endothelium-denuded aortic rings (Example 11); set-up: species or system rat; conditions: GC-A mediated
Experimental: Male Sprague Dawley rats were killed and the descending thoracic aorta rapidly removed and flushed with physiological solution. After being cleared of adhering fat and connective tissue, 5 mm rings were mounted under 10 g resting tension, between two stainless steel hooks, in organ baths (37° C.) containing carbogenated (95% O2 and 5% CO2) physiological salt solution of the following composition (mM): NaCl, 118.4; NaHCO3, 25; glucose, 11; KCl, 4.7; MgSO4, 1.2; KH2PO4, 1.2 and CaCl2, 2.5. The lower hook was attached to a tissue holder and the upper hook to a force displacement transducer (Grass FTO3). Where indicated endothelial cells were removed by gentle rubbing of the intimal surface with a wire. To confirm the presence or absence of endothelial cells, tissues were precontracted with a sub-maximal concentration of phenylephrine (0.3 μM) and the response to acetylcholine (ACh, 10 μM) observed. Ach-induced relaxation greater than 80% of maximum indicated the presence of endothelium; whereas Ach-induced relaxation less than 10% indicated the absence of endothelium. Ring preparations under resting tension were conditioned by two contraction/relaxation cycles with 40 mM KCl, contracted by a third application of 40 mM KCl and then relaxed with different doses of the venom peptides. Responses were expressed as a percentage relaxation of the precontraction by KCl.
In addition to the peptides tested in example 3, a series of 13 analogs corresponding to the 2a, 2b and 2c grouping of peptides were examined for their ability to dilate noradrenaline constricted aortic rings. The degree of constriction was expressed as a percentage of the KCl induced constriction. The aortic rings were prepared in a manner similar to the method described in example 3. […]. In each case there were at least 3 separate aortic rings tested per peptide and all were denuded of endothelium to ensure responses were confined to the GC A receptor.

conscious rabbits = assay: Blood pressure and heart rate in conscious rabbits, intravenous infusion dose-response (Example 8); conditions: for recovery of MAP, in words: 2 hours after infusion; for recovery of MAP from the hypotension, in words: one hour after the end of infusion
[3] = after a 2 hour recovery period, Table 10B
[4] = final dose, Table 10B, groups 2B and 2C
[5] = after 1 hour recovery period, Table 10A
[6] = highest dose, Table 10A, groups 1, 2A and 3

## CC[C@H](C)[C@@H]1NC(=O)[C@H](CCCNC(=N)N)NC(=O)[C@H](CC(=O)O)NC(=O)[C@H](CC(C)C)NC(=O)[C@@H]2CCCN2C(=O)[C@H](Cc2ccccc2)NC(=O)CNC(=O)[C@H](Cc2ccccc2)NC(=O)[C@@H](NC(=O)CNC(=O)[C@H](CO)NC(=O)CNC(=O)[C@H](CCC(N)=O)NC(=O)[C@@H](NC(=O)[C@H](CCSC)NC(=O)[C@H](CCCCN)NC(=O)[C@@H]2CCCN2C(=O)[C@@H](N)CO)C(C)C)CSSC[C@@H](C(=O)N[C@@H](CC(N)=O)C(=O)N[C@@H](CCCNC(=N)N)C(=O)N[C@H](C(=O)N[C@@H](CCSC)C(=O)N[C@@H](CCC(N)=O)C(=O)N[C@@H](CC(N)=O)C(=O)N2CCC[C@H]2C(=O)N2CCC[C@H]2C(=O)N[C@@H](CCCCN)C(=O)N[C@@H](CCCCN)C(=O)N[C@@H](Cc2ccccc2)C(=O)N[C@@H](CO)C(=O)NCC(=O)N[C@@H](CCC(=O)O)C(=O)O)[C@@H](C)CC)NC(=O)CNC(=O)[C@H](CC(C)C)NC(=O)CNC(=O)[C@H](CO)NC(=O)[C@H](C(C)C)NC(=O)[C@H](CO)NC(=O)CNC1=O [TNPc BTT] (H-SPKMVQGSGCFGFPLDRIGSVSGLGCNRIMQNPPKKFSGE-OH; disulfide 10-26; N-terminus assumed)
[1]
  −Log10 EC50 (pEC50) ± Standard Error: 8.177 ± 0.1049
  EC50: 7.06e-09 M
[2]
  Mean relaxation SEM of denuded aortic rings expressed as % of KCl response: 62.1 ± 6.6%
Conscious rabbits
  recovery of MAP, in words: did not recover after 2 hours
Conscious rabbits; Table 10B
  MAP at final dose: 63.4 mm Hg
Conscious rabbits; [3]
  Recovery (MAP): 65.4 mm Hg
  Recovery Delta SED (MAP): 2.1 ± 1.5 mm Hg
Conscious rabbits; [4]
  Treatment Effect, change of mean blood pressure during the infusion: −10.8 mm Hg

## CC[C@H](C)[C@H](NC(=O)[C@H](CCCCN)NC(=O)[C@H](CO)NC(=O)[C@H](CC(=O)O)NC(=O)[C@@H](N)CO)C(=O)NCC(=O)N[C@@H](CCCCN)C(=O)NCC(=O)N[C@H]1CSSC[C@@H](C(=O)N[C@@H](CC(N)=O)C(=O)N[C@@H](CCCNC(=N)N)C(=O)N[C@H](C(=O)N[C@@H](CCSC)C(=O)N[C@@H](CCC(N)=O)C(=O)N[C@@H](CC(N)=O)C(=O)N2CCC[C@H]2C(=O)N2CCC[C@H]2C(=O)N[C@@H](CCCCN)C(=O)N[C@@H](CCCCN)C(=O)N[C@@H](Cc2ccccc2)C(=O)N[C@@H](CO)C(=O)NCC(=O)N[C@@H](CCC(=O)O)C(=O)O)[C@@H](C)CC)NC(=O)CNC(=O)[C@H](CC(C)C)NC(=O)CNC(=O)[C@H](CO)NC(=O)[C@H](C(C)C)NC(=O)[C@H](CO)NC(=O)CNC(=O)[C@H]([C@@H](C)CC)NC(=O)[C@H](CCCNC(=N)N)NC(=O)[C@H](CC(=O)O)NC(=O)[C@H](CC(C)C)NC(=O)[C@@H]2CCCN2C(=O)[C@H](Cc2ccccc2)NC(=O)CNC(=O)[C@H](Cc2ccccc2)NC1=O [TNPc K7] (H-SDSKIGKGCFGFPLDRIGSVSGLGCNRIMQNPPKKFSGE-OH; disulfide 9-25; N-terminus assumed)
[1]
  −Log10 EC50 (pEC50) ± Standard Error: 7.443 ± 0.2700
  EC50: 5.28e-08 M
[2]
  Mean relaxation SEM of denuded aortic rings expressed as % of KCl response: 50% and 46.1 ± 13.5%
Conscious rabbits
  recovery of MAP, in words: did not recover after 2 hours
Conscious rabbits; Table 10B
  MAP at final dose: 59.0 mm Hg
Conscious rabbits; [3]
  Recovery (MAP): 62.4 mm Hg
  Recovery Delta SED (MAP): 3.4 ± 1.9 mm Hg
Conscious rabbits; [4]
  Treatment Effect, change of mean blood pressure during the infusion: −14.1 mm Hg

## SDSKISKGCFGFPLDRIGSVSGLGCNRIMQNPPKKFSGE (A portion of a natriuretic peptide) [TNPc K7S6]
[2]
  Mean relaxation SEM of denuded aortic rings expressed as % of KCl response: 43.8 ± 4.3%
Conscious rabbits
  recovery of MAP, in words: did not recover after 2 hours
Conscious rabbits; Table 10B
  MAP at final dose: 60.3 mm Hg
Conscious rabbits; [3]
  Recovery (MAP): 64.2 mm Hg
  Recovery Delta SED (MAP): 3.9 ± 2.6 mm Hg
Conscious rabbits; [4]
  Treatment Effect, change of mean blood pressure during the infusion: −12.6 mm Hg

## SDSKIGNGUFGFPLDRIGSVSGLGUNRIMQNPPKKFSGE (SDSKIGNG[Sec]FGFPLDRIGSVSGLG[Sec]NRIMQNPPKKFSGE; ends and bridges not checked) [TNPc diseleno]
[2]
  Mean relaxation SEM of denuded aortic rings expressed as % of KCl response: 60.5 ± 9.6%
Conscious rabbits
  recovery of MAP, in words: did not recover after 2 hours
Conscious rabbits; Table 10B
  MAP at final dose: 61.0 mm Hg
Conscious rabbits; [3]
  Recovery (MAP): 65.8 mm Hg
  Recovery Delta SED (MAP): 4.8 ± 0.3 mm Hg
Conscious rabbits; [4]
  Treatment Effect, change of mean blood pressure during the infusion: −12.6 mm Hg

## SDSKIGNGCFGFPLDRIGSVSGLGCNRPMQNPPKKFSGE (A portion of a natriuretic peptide) [TNPc I28P]
[2]
  Mean relaxation SEM of denuded aortic rings expressed as % of KCl response: 52.6 ± 5.0%
Conscious rabbits; [5]
  Recovery (MAP): 66.6 mm Hg
  Recovery Delta SED (MAP): 1.2 ± 2.4 mm Hg
Conscious rabbits; highest dose
  reduction of MAP compared to vehicle, in words: did significantly reduce MAP
Conscious rabbits; highest dose, Table 10A
  MAP at final dose: 65.4 mm Hg
Conscious rabbits; [6]
  Treatment Effect, change of mean blood pressure during the infusion: −9.1 mm Hg
Conscious rabbits
  recovery of MAP from the hypotension, in words: did recover from the hypotension

## SDSKIGNGCFGFPLDRIGSVSGLGCNRIMQNRPKKFSGE (A portion of a natriuretic peptide) [TNPc P32R]
[2]
  Mean relaxation SEM of denuded aortic rings expressed as % of KCl response: 66.4 ± 8.8%
Conscious rabbits; [5]
  Recovery (MAP): 57.6 mm Hg
  Recovery Delta SED (MAP): 0.1 ± 1.4 mm Hg
Conscious rabbits; highest dose, Table 10A
  MAP at final dose: 57.5 mm Hg
Conscious rabbits; [6]
  Treatment Effect, change of mean blood pressure during the infusion: −19.9 mm Hg
Conscious rabbits
  recovery of MAP from the hypotension, in words: did recover from the hypotension

## SDSKIGNGCFGFPLDRIGSVSGLGCNRInQNPPKKFSGE (SDSKIGNGCFGFPLDRIGSVSGLGCNRI[Nle]QNPPKKFSGE; disulfide 9-25 (inferred); ends not checked) [TNPc Nle]
[2]
  Mean relaxation SEM of denuded aortic rings expressed as % of KCl response: 61.0 ± 2.5%
Conscious rabbits
  recovery of MAP, in words: partially recovered
Conscious rabbits; Table 10B
  MAP at final dose: 53.4 mm Hg
Conscious rabbits; [3]
  Recovery (MAP): 64.5 mm Hg
  Recovery Delta SED (MAP): 11.0 ± 3.0 mm Hg
Conscious rabbits; [4]
  Treatment Effect, change of mean blood pressure during the infusion: −13.6 mm Hg
